From patent US6806269B1, “2-Amino-benzoxazinones for the treatment of herpes simplex virus” (G. D. Searle & Cop, priority 1999, dated 2004) come the findings set out here.

For test [1], the target named is T1, HSV-1 protease (assemblin) (Human herpesvirus 1, UniProt P10210).
T1 construct: encoding residues 1-288 of HSV-1 UL26 open reading frame and 32 heterologous amino acid; 6xHis (N); made in house
The experiment in a line: Enzymatic assay for HSV-1 protease (assemblin) inhibition (FP assay / HPLC assay). Conditions: recombinant HSV-1 protease; 30 minute pre-incubation at room temperature; FP or HPLC format not stated; read-out: ENZYME IC50. In kind it is biochemical. The protocol: Enzymatic Assay for HSV-1 Protease (Assemblin) Inhibition
Assemblin protease activity was determined using fluorescence polarization (FP). The fluorescent substrate was biotin-gamma-aminobutyrate -[…]-DTAF, based on the HSV-1release cleavage site. […] A change in molecular size of fluorescent substrate molecule, which was increased using avidin as a reaction stop reagent, allowed cleavage to be measured by FP. Potential protease inhibitors were dissolved in DMF and then diluted 5-fold in assay buffer. […] The enzyme was diluted to 21.3 ug/mL in assay buffer (1M NaCitrate, 50 mM NaPhosphate, pH 7.4, 100mM NaCl, 20% glycerol, 2 mM TECP) and 48.5 uL were added to each well. Following a 30 minute incubation at room temperature, 10 uL of 62.5 ug/mL substrate were added. After about 90 minute incubation at room temperature, 50 uL of 2 mg/mL avidin in phosphate buffer (50 mM Naphosphate, 100 mM NaCl, pH 7.4) were added to each well. The plates were read by a fluorescence polarization plate reader. Inhibitor potency was determined by comparison with incubations lacking inhibitor.
Assays were performed with the peptide substrate H-His-Thr-Tyr-Leu-Gln-Ala-Ser-Glu-Lys-Phe-Lys-Met-Trp-Gly-NH2 (Bachem). This substrate is a HSV-1-amide UL26 Open Reading Frame (242-255) and is derived from the release site of HSV-1 protease. HSV-1protease cleaves between alanine and serine. The product […] was quantified on HPLC using fluorescence detection of tryptophan residue. Enzyme was diluted to 4.3 ug/mL in assay buffer (1 M NaCitrate, 50 mM NaPhosphate, pH 7.3, 100 mM NaCl, 20% glycerol, 2 mM TCEP) and 48.5 uL were added to the tubes. Potential protease inhibitors were dissolved in DMF and then diluted 10-fold in assay buffer. 6.5 uL of inhibitor solution were added to each tube. Following a 30-minute incubation at room temperature, 10 uL of substrate in phosphate buffer (50 mM Naphosphate, 100 mM NaCl, pH 7.4) were added to all tubes. The final concentration of the substrate in the reaction mixtures was 10 uM. After a 15-minute incubation at room temperature, assays were quenched using 50 uL of 50% TCA. Inhibitor potency was determined by comparison with incubations lacking inhibitor, which under these conditions gave about 20% cleavage of substrate.
Recombinant HSV-1 Protease
HSV-1 protease was purified from baculovirus expressing a DNA construction encoding residues 1-288 of HSV-1 UL26 open reading frame and 32 heterologous amino acid. The construction also encoded six additional histidine residues at the amino terminus of the protease. These additional histidine residues provided an affinity ligand by which the protein was purified using Ni-NTA agarose gel (Qiagen). The purified protease was stored in stock solution (20 mM HEPES buffer, pH 8.5, containing 20% (v/v) glycerol). This stock was diluted with assay buffer to adequate concentration of enzymatic assay.
A specific substrate was synthesized based on the cleavage specificity of HSV-1 protease at the “release site” of the assembly protein (DiIanni, C. L., et al., J. Biol. Chem. 268, 2048, (1993)). The assembly protein release site has the sequence, HTYLQA*SEKFKMWG. The substrate used was biotin-gamma -aminobutyrate-HTYLQA*SERFRIK-DTAF which was prepared by standard peptide synthetic methods such as that described in Bodansky and Bodansky, “The Practice of Peptide Synthesis” (1984), and was stored as a stock solution at 2.5 mg/mL in DMF. This was diluted to 62.5 ug/mL with phosphate buffer (50 mM Naphosphate, […], pH 7.4) just before use.
The substrate was HSV-1-amide UL 26 Open Reading Frame (242-255), obtained from Bachem (Product No. M-2160).
An assay buffer (1 M NaCitrate, 50 mM NaPhosphate, pH 7.4, 100 mM NaCl, 20% glycerol, 2 mM TCEP) was used to dilute stock solutions of enzyme and inhibitors.

Test [2] concerns the target T2, Human leukocyte elastase (HLE) (Homo sapiens, UniProt P08246).
T2 construct: purchased CALBIOCHEM
T2 sequence (P08246 30-267): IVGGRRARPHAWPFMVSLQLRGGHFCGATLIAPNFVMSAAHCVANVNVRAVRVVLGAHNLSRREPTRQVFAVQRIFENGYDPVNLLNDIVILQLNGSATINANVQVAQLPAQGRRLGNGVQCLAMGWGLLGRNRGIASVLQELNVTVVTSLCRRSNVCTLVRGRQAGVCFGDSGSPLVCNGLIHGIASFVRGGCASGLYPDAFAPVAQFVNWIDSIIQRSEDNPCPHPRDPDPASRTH
Kind of test: Human leukocyte elastase assay. In kind it is biochemical. Conditions: 50 μM compound; 30 minutes pre-incubation. The protocol:
Human Leukocyte Elastase Assay
Human leukocyte elastase (HLE) (CALBIOCHEM) was dissolved in saline at 1 mg/ml and further diluted 1/10 in assay buffer (0.2 M Tris, pH 8.0) before use.
0.75 μl of test compound in DMF (or DMF alone), 50 μl of assay buffer and 50 μl of enzyme were added to 96 well plate, mixed and pre-incubated for 30 minutes at ambient temperature. Reaction was initiated by addition of 50 μl of 2.5 mM methoxysuccinyl-Ala-Ala-Pro-Val-p-nitroanilide (Sigma; 25 mM in DMSO diluted 1/10 in assay buffer before use). The increase in absorbance at 405 nm was monitored for 3 min. with BIO-RAD model 3550 microplate reader.

The test system of a further test is HSV-1. The experiment in a line: Antiviral assay: plaque reduction assay, HSV-1 in vero cells. The note with it: Human alphaherpesvirus 1, Vero, 72 h, read-out: ANTIVIRUS EC50. Format: cell-based, HSV-1 (vero cells, African green monkey kidney cell). An excerpt:
These complimentary assays tested the ability of a compound to inhibit the production of new virus and the toxicity of the compound to the host cells. It was important that both assays be performed simultaneously in order to compare the results directly since toxicity may indirectly reduce viral replication.
The antiviral assay was estimated by plaque reduction assay performed by following methods. 1×10^5 of vero cells (African green monkey kidney cell) in 48-well plates were over-night cultured and the medium of this culture was replaced with 200 μl of 2% FBS DMEM containing 2× the desired final cordon of test compounds or no compound as control. The cultures were added 50 μl of 2% FBS DMEM containing with about 50 plaque forming units of HSV-1and next 250 μl of 2% FBS DMEM containing 1% methylcellulose. These infected cultures were incubated at 37° C., 5% CO2 for 3 days until plaques was visible. The cells were fixed and stained simultaneously with 0.025% crystalviolet in 5% formalin solution and plaque were counted. The concentration of test compound which conferred 50% inhibition of plaque formation compared to no compound control was interpolated from the observed data and defined as IC50.

Test [3] deals with T3, Bovine pancreas α-chymotripsin (Bos taurus, UniProt P00766).
T3 construct: purchased Sigma type II; host or cells: bovine pancreas
The experiment in a line: Chymotripsin assay. In kind it is biochemical. The note with it: 50 μM compound; 30 minutes pre-incubation; read-out: INHIBITION AT 50 μM CHYMOTRYPSIN (%). The protocol: The chymotripsin assay was modified from the method of Delmar, et al. (Anal. Biochem. 99, 316-320 (1979)). Bovine pancreas α-chymotripsin(type II, Sigma) was dissolved in 0.001 N HCl at 1 mg/ml and further diluted 1/1000 in assay buffer (0.1 M Tris, pH 7.8 containing 0.1 M CaCl2) before use. 0.75 μl of test compound in DMF (or DMF alone), 50 μl of assay buffer and 50 μl of enzyme were added to 96 wells plates, mixed and pre-incubated for 30 minutes at ambient temperature. Reaction was initiated by addition of 50 μl of 0.2 mM N-succinyl-Ala-Ala-Pro-Phe-p-nitroanilide (Sigma; 2 mM in DMSO diluted 1/10 in assay buffer before use). The increase in absorbance at 405 nm was monitored for 3 minutes with BIO-RAD model 3550 microplate-reader.

T1 sequence (P10210 1-288): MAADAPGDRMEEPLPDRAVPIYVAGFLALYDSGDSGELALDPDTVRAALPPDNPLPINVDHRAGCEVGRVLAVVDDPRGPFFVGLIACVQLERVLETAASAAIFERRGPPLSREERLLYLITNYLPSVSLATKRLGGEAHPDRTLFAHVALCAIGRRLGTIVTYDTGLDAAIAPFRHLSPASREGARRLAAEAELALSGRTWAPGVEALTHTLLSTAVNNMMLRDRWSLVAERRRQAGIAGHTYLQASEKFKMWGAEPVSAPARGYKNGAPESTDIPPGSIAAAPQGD

For `Cc1c(NC(=O)OC(C)(C)C)ccc2nc(N(C)C(C)C)oc(=O)c12` [Compound 10, 6-[[(1,1-Dimethylethoxy)carbonyl]amino]-5-methyl-2-[isopropyl(methyl)amino]-4H-3,1-benzoxazin-4-one], the IC50 (commonly the concentration needed to halve the response being measured) in test [1] worked out at 7.8 µM. The inhibition at 50 µM in test [2] and in test [3] was 0% throughout. Besides, in the test with HSV-1, the EC50 (in general, the concentration at which the effect is half-maximal) was 3.3 µM.

As for `Cc1c(NC(=O)OC(C)(C)C)ccc2nc(N3CCCC4CCCCC43)oc(=O)c12` (stereo not drawn) [Compound 11, 6-[[(1,1-Dimethylethoxy)carbonyl]amino]-5-methyl-2-(decahydroquinolyl)-4H-3,1benzoxazin-4-one], the IC50 in test [1] is 5.5 µM. Further, the inhibition at 50 µM in test [2] and in test [3] was 0% each time. In the test on HSV-1, the EC50 was 2.8 µM.

With `Cc1c(NC(=O)c2c(F)cc(F)cc2F)ccc2nc(N(C(C)C)C(C)C)oc(=O)c12` [Compound 12, 6-[(2,4,6-Trifluorobenzoyl)amino]-5-methyl-2(diisopropylamino)-4H-3,1-benzoxazine-4-one], the IC50 in test [1] is 6.3 µM. Besides, the inhibition (as a rule, the change of the read-out against control, counted positive when it falls) at 50 µM turned out to be 13.4% in test [2] and 22.4% in test [3]. Moreover, in the test on HSV-1, the EC50 turned out to be 6.8 µM.

In the case of `Cc1c(NC(=O)OC(C)(C)C)ccc2nc(N(CCC#N)C3CC3)oc(=O)c12` [Compound 13, 6-[[(1,1-Dimethylethoxy)carbonyl]amino]-5-methyl-2-[(2-cyanoethyl)-(cyclopropyl)amino]-4H-3,1-benzoxazin-4-one], in test [1], the IC50 was 3.9 µM. The inhibition at 50 µM in test [2] was found to be 0%; in test [3] it was 2.2%. For the same compound, the EC50 in the test on HSV-1 is 7.6 µM.

For the compound `Cc1c(NC(=O)OC(C)(C)C)ccc2nc(N3CCN(C(=O)c4ccco4)CC3)oc(=O)c12` [Compound 14], the IC50 in test [1] worked out at 2 µM. Moreover, the inhibition at 50 µM in test [2] stood at 46.3%; in test [3], 0%. In the test on HSV-1, the EC50 came to 1.6 µM.

On to `Cc1c(NC(=O)OC(C)(C)C)ccc2nc(N3CCN(S(=O)(=O)c4ccccc4)CC3)oc(=O)c12` [Compound 15, 6-[[(1,1-Dimethylethoxy)carbonyl]amino]-5-methyl-2-[(4-benzenesulfonyl)-piperazinyl]-4H-3,1-benzoxazin-4-one], for which the half-maximal inhibitory concentration (IC50) in test [1] is 1.7 µM. Besides, the inhibition at 50 µM in test [2] and in test [3] was 0% throughout. Besides, the EC50 with HSV-1 turned out to be 2.8 µM.

For the compound `CC(=O)N1CCN(c2nc3ccc(NC(=O)OC(C)(C)C)c(C)c3c(=O)o2)CC1` [Compound 16, 6-[[(1,1-Dimethylethoxy)carbonyl]amino]-5-methyl-2-[4-(1-acetylpiperadinyl)]-4H-3,1-benzoxazin-4-one], the IC50 in test [1] came to 2.3 µM. In addition, the inhibition at 50 µM in test [2] was found to be 1.4%; in test [3], 0%. In the test with HSV-1, the EC50 came out at 3.6 µM.

As for `Cc1c(NC(=O)OC(C)(C)C)ccc2nc(N3CCN(C(=O)c4cccs4)CC3)oc(=O)c12` [Compound 17, 6-[[(1,1-Dimethylethoxy)carbonyl]amino]-5-methyl-2-[(4-thenoyl)piperzinyl]-4H-3,1-benzoxazin-4-one], the IC50 in test [1] was determined as 4.2 µM. The inhibition at 50 µM in test [2] and in test [3] was 0% each time. Also, the EC50 with HSV-1 was found to be 4.1 µM.

For `Cc1c(NC(=O)OC(C)(C)C)ccc2nc(N(C)Cc3ccccn3)oc(=O)c12` [Compound 18, 6-[[(1-Dimethylethoxy)carbonyl]amino]-5-methyl-2-[methyl(2-pyridylmethyl)-amino]-4H-3,1-benzoxazin-4-one], the IC50 in test [1] was determined as 1.5 µM. In addition, the inhibition at 50 µM in test [2] worked out at 28.7%; in test [3] it was 0%. Further, in the test on HSV-1, the concentration giving a half-maximal response (EC50) was determined as 15.1 µM.
